Measurements: patent publication US20230255979A1, “METHODS OF TREATING ACUTE RESPIRATORY DISORDERS” (Bristol-Myers Squibb Company, priority 2020, published 2023)
“Also recorded” adds a separate entry of the source.

What was measured:
[1] = test system: peripheral blood mononuclear cell (PBMCs); experiment: Cytokine assessment in PBMCs pretreated with compound, then LPS or SEB/IL-2 treatment; type: cell-based, human; conditions: 1 h pretreatment
monocytes = experiment: Cytokine production in LPS-stimulated monocytes; type: cell-based, human
Protocol: (§1) In addition, PBMCs were isolated from buffy coat using Ficoll gradient method and were used for monocyte enrichment without CD16 depletion with the Stem Cell technologies kit (Cat #19058). […] All cells were cultured at 37° C. with 5% CO2 in a humidified incubator.
as §1, with “For Monocytes:” for “In addition,”, “incubator. Supernatant was collected for cytokine and chemokine analysis.” for “incubator.”
(§2) For Macrophages: monocytes were differentiated into macrophages by stimulation with 50 ng/ml of MCS-F for 5 days followed by treatment with 50 ng/ml Interferon gamma for ˜16 hours. Macrophages were then plated, allowed to acclimate for 24 hours. […] All cells were cultured at 37° C. with 5% CO2 in a humidified incubator. Supernatants were collected for further analysis. Cytokine and chemokine analysis was performed in the supernatants using Magpix magnetic beads.

macrophages = experiment: Cytokine production in LPS-stimulated macrophages; type: cell-based, human; conditions: compound 4 h or 24 h
Protocol: as §2

whole blood = experiment: Pharmacodynamic assessment in MAD study, ex vivo LPS stimulation of whole blood (TruCulture); set-up: species or system human; conditions: healthy volunteers, 150 mg, individual level data
Protocol: The study consisted of escalating multiple doses in sequential groups. Thirty-seven subjects were enrolled into 5 dose level cohorts (10, 30, 60, 120, and 150 mg).
Each subject participated in a screening phase, a treatment phase (included baseline). Eligible subjects were admitted to the study site on Day −1 and resided at the study site from Day −1 to Day 17. The first dose of study drug was administered on Day 1, under fasted conditions, according to the randomization schedule. The same QD dose was administered for the remainder of the planned treatment schedule (Day 2 to Day 14, inclusive). For each dose level cohort in Part 2, blood samples were collected on Day 1 predose (0-hour), and predose (0-hour) on Days 2, 3, 5, 8, 11, and 14. Blood samples were also collected at approximately the same time of the day as the Days 1 to 14 samples on Days 15, 17, 21, and 28. Subjects were discharged from the study site on Day 17 upon satisfactory safety review and completion of the required study procedures. For all dose level cohorts, subjects returned to the study site for outpatient visits on Day 21 and Day 28. There were no early terminations.
Ex vivo stimulation was performed in whole blood using the TruCulture® assay system (Myriad RBM, Austin, Tex.). […] Briefly, blood (1 ml) was drawn into the LPS-containing TruCulture tubes from each subject on the days listed in the study protocol. The truculture tubes were placed in a 37° C. block thermostat for 24±1 hrs and then frozen at −70° C. Media mixed with plasma was analyzed for TNF-α and other cytokine/chemokine levels. TNF-α inhibition in ex vivo LPS-stimulated blood was measured as percent change in TNF-α levels from baseline. Percent change in other cytokines/chemokines in the ex vivo stimulation assay was also measured with respect to their baseline levels.

PBMCs = experiment: RT-PCR gene expression of cytokines and chemokines in LPS-treated PBMCs from HV; conditions: LPS 1.5 hrs then compound 1.5 hrs

CCOCc1cnc(Cl)nc1Oc1ccc2c(ccc3sc4c(c32)NC[C@@H](C)NC4=O)n1 [Compound I-82]
inhibition of TNF-α in PBMCs ([1]; LPS stimulation 24 hours, FIG. 1A): dose dependent inhibition; also recorded: decreased in a dose-dependent manner | inhibition of TNF-α in PBMCs ([1]; SEB/IL-2 treatment 3 days, FIG. 1B): dose dependent inhibition; also recorded: decreased in a dose-dependent manner | inhibition of TNF-α in monocytes (monocytes; LPS stimulation 23 hours, FIG. 2): dose dependent inhibition; also recorded: decreased in a dose-dependent manner | inhibition of TNF-α in monocytes (monocytes; compound 4 h or 24 h, LPS 3 or 23 hours, FIG. 3): dose-dependent inhibition; also recorded: inhibits | inhibition of IL-6 in monocytes (monocytes; compound 4 h or 24 h, LPS 3 or 23 hours, FIG. 4A): dose-dependent inhibition; also recorded: inhibits | inhibition of IL-1β in monocytes (monocytes; compound 4 h or 24 h, LPS 3 or 23 hours, FIG. 4B): dose-dependent inhibition; also recorded: inhibits | inhibition of IL-6 in macrophages (macrophages; LPS 3 or 23 hours, FIG. 4A): dose-dependent inhibition; also recorded: inhibits | inhibition of IL-1β in macrophages (macrophages; LPS 3 or 23 hours, FIG. 4B): dose-dependent inhibition; also recorded: inhibits | inhibition of TNF-α in macrophages (macrophages; LPS (100 ng/ml) 3 or 23 hours, FIG. 3): dose-dependent inhibition; also recorded: inhibits | inhibition of IL-6 following ex vivo LPS stimulation (whole blood; FIG. 8B): inhibition of IL-6 | inhibition of MIP-1A following ex vivo LPS stimulation (whole blood; FIG. 8C): inhibition of MIP-1A | inhibition of MIP-1B following ex vivo LPS stimulation (whole blood; FIG. 8D): inhibition of MIP-1B | inhibition of gene expression of MCP-1 (PBMCs; FIG. 5A): inhibition of gene expression; also recorded: inhibits gene expression | inhibition of gene expression of IL-6 (PBMCs; FIG. 5B): inhibition of gene expression; also recorded: inhibits gene expression | inhibition of gene expression of IL-1β (PBMCs; FIG. 5C): inhibition of gene expression; also recorded: inhibits gene expression | inhibition of gene expression of TNF-α (PBMCs; FIG. 6A): inhibits gene expression | inhibition of gene expression of GM-CSF (PBMCs; FIG. 6B): inhibition of gene expression; also recorded: inhibits gene expression | inhibition of gene expression of ZFP36 (TTP) (PBMCs; FIG. 6C): does not inhibit gene expression
